Data reported in ChEMBL document CHEMBL1221228, “Norselic acids A-E, highly oxidized anti-infective steroids that deter mesograzer predation, from the Antarctic sponge Crella sp” (2009).

Key:
Assay type in all cases: functional
Candida albicans [1] = experiment: Antimicrobial activity against Candida albicans 54 at 30 ug after 18 hrs by agar diffusion method; conditions: Candida albicans, 54, 18 h; read-out: IZ
Escherichia coli [2] = experiment: Antimicrobial activity against Escherichia coli 442 assessed as hazy zone of inhibition at 30 ug after 18 hrs by agar diffusion method; conditions: Escherichia coli, 442, 18 h; read-out: IZ
Escherichia coli [3] = experiment: Antimicrobial activity against Escherichia coli 442 at 30 ug after 18 hrs by agar diffusion method; conditions: Escherichia coli, 442, 18 h; read-out: IZ
Escherichia coli [4] = experiment: Antimicrobial activity against Escherichia coli 389 assessed as hazy zone of inhibition at 30 ug after 18 hrs by agar diffusion method; conditions: Escherichia coli, 389, 18 h; read-out: IZ
Escherichia coli [5] = experiment: Antimicrobial activity against Escherichia coli 389 at 30 ug after 18 hrs by agar diffusion method; conditions: Escherichia coli, 389, 18 h; read-out: IZ
Staphylococcus aureus [6] = experiment: Antimicrobial activity against methicillin sensitive Staphylococcus aureus 375 at 30 ug after 18 hrs by agar diffusion method; conditions: Staphylococcus aureus, 375, 18 h; read-out: IZ
Staphylococcus aureus [7] = experiment: Antimicrobial activity against methicillin sensitive Staphylococcus aureus 310 at 30 ug after 18 hrs by agar diffusion method; conditions: Staphylococcus aureus, 310, 18 h; read-out: IZ
Enterococcus faecium [8] = experiment: Antimicrobial activity against vancomycin-resistant Enterococcus faecium 379 at 30 ug after 18 hrs by agar diffusion method; conditions: Enterococcus faecium, 379, 18 h; read-out: IZ
Leishmania = experiment: Antileishmanial activity against Leishmania
Enterococcus faecium [9] = experiment: Antimicrobial activity against vancomycin-resistant Enterococcus faecium 379 assessed as hazy zone of inhibition at 200 ug after 18 hrs by agar diffusion method; conditions: Enterococcus faecium, 379, 18 h; read-out: IZ
Escherichia coli [10] = experiment: Antimicrobial activity against Escherichia coli 389 at 200 ug after 18 hrs by agar diffusion method; conditions: Escherichia coli, 389, 18 h; read-out: IZ
Staphylococcus aureus [11] = experiment: Antimicrobial activity against methicillin sensitive Staphylococcus aureus 375 assessed as very hazy zone of inhibition at 200 ug after 18 hrs by agar diffusion method; conditions: Staphylococcus aureus, 375, 18 h; read-out: IZ
Candida albicans [12] = experiment: Antimicrobial activity against Candida albicans 54 at 200 ug after 18 hrs by agar diffusion method; conditions: Candida albicans, 54, 18 h; read-out: IZ
Staphylococcus aureus [13] = experiment: Antimicrobial activity against methicillin-resistant Staphylococcus aureus 310 assessed as hazy zone of inhibition at 200 ug after 18 hrs by agar diffusion method; conditions: Staphylococcus aureus, 310, 18 h; read-out: IZ
Escherichia coli [14] = experiment: Antimicrobial activity against Escherichia coli 442 at 200 ug after 18 hrs by agar diffusion method; conditions: Escherichia coli, 442, 18 h; read-out: IZ
Odontaster validus = experiment: Reduction of food intake in Odontaster validus assessed as rejection of food pellets after 72 hrs relative to control; set-up: scale not given: the % may be the effect or the level left
Escherichia coli [15] = experiment: Antimicrobial activity against Escherichia coli 442 at 1 unit after 18 hrs by agar diffusion method
Staphylococcus aureus [16] = experiment: Antimicrobial activity against methicillin sensitive Staphylococcus aureus 310 at 1 unit after 18 hrs by agar diffusion method
Enterococcus faecium [17] = experiment: Antimicrobial activity against vancomycin-resistant Enterococcus faecium 379 at 1 unit after 18 hrs by agar diffusion method
Staphylococcus aureus [18] = experiment: Antimicrobial activity against methicillin sensitive Staphylococcus aureus 375 at 1 unit after 18 hrs by agar diffusion method
Staphylococcus aureus [19] = experiment: Antimicrobial activity against methicillin sensitive Staphylococcus aureus 375 assessed as hazy zone of inhibition at 1 unit after 18 hrs by agar diffusion method
Candida albicans [20] = experiment: Antimicrobial activity against Candida albicans 54 at 1 unit after 18 hrs by agar diffusion method
Escherichia coli [21] = experiment: Antimicrobial activity against Escherichia coli 442 at 5 ug after 18 hrs by agar diffusion method; conditions: Escherichia coli, 442, 18 h; read-out: IZ
Escherichia coli [22] = experiment: Antimicrobial activity against Escherichia coli 389 at 5 ug after 18 hrs by agar diffusion method; conditions: Escherichia coli, 389, 18 h; read-out: IZ
Candida albicans [23] = experiment: Antimicrobial activity against Candida albicans 54 at 5 ug after 18 hrs by agar diffusion method; conditions: Candida albicans, 54, 18 h; read-out: IZ

CO[C@@]1(NC(=O)Cc2cccs2)C(=O)N2C(C(=O)O)=C(COC(N)=O)CS[C@@H]21 [CEFOXITIN]
zone of inhibition at 30 µg/disc (Candida albicans [1]): 0 mm | zone of inhibition at 30 µg/disc (Escherichia coli [2]): 26 mm | zone of inhibition at 30 µg/disc (Escherichia coli [3]): 18 mm | zone of inhibition at 30 µg/disc (Escherichia coli [4]): 26 mm | zone of inhibition at 30 µg/disc (Escherichia coli [5]): 22 mm

NC[C@H]1O[C@H](O[C@H]2[C@H](O)[C@@H](O[C@H]3O[C@H](CO)[C@@H](O)[C@H](N)[C@H]3O)[C@H](N)C[C@@H]2N)[C@H](O)[C@@H](O)[C@@H]1O [KANAMYCIN]
zone of inhibition at 30 µg/disc (Candida albicans [1]): 0 mm | zone of inhibition at 30 µg/disc (Staphylococcus aureus [6]): 15 mm | zone of inhibition at 30 µg/disc (Escherichia coli [4]): 37 mm | zone of inhibition at 30 µg/disc (Escherichia coli [5]): 21 mm | zone of inhibition at 30 µg/disc (Staphylococcus aureus [7]): 0 mm | zone of inhibition at 30 µg/disc (Enterococcus faecium [8]): 10 mm

C=C(CC[C@@H](C)[C@H]1CC[C@H]2[C@@H]3CCC4=CC(=O)C=C[C@]4(C)[C@H]3CC[C@]12C(=O)O)C(C)C [NORSELIC ACI C]
Activity (Leishmania): 2.6 µM

C=C(C)[C@@](O)(CC)CC[C@@H](C)[C@H]1CC[C@H]2[C@@H]3C=CC4=CC(=O)C=C[C@]4(C)[C@H]3CC[C@]12C(=O)O [NORSELIC ACID A]
zone of inhibition at 200 µg/disc (Enterococcus faecium [9]): 8 mm | zone of inhibition at 200 µg/disc (Escherichia coli [10]): 0 mm | Activity (Leishmania): 2.5 µM | zone of inhibition at 200 µg/disc (Staphylococcus aureus [11]): 8 mm | zone of inhibition at 200 µg/disc (Candida albicans [12]): 8 mm | zone of inhibition at 200 µg/disc (Staphylococcus aureus [13]): 9 mm | zone of inhibition at 200 µg/disc (Escherichia coli [14]): 0 mm | Activity (Odontaster validus): 35%

C=C(C)[C@@](O)(CC)CC[C@@H](C)[C@H]1CC[C@H]2[C@@H]3CC[C@H]4CC(=O)C=C[C@]4(C)[C@H]3CC[C@]12C(=O)O [NORSELIC ACID B]
Activity (Leishmania): 2.4 µM

C=C(C)[C@@](O)(CC)CC[C@@H](C)[C@H]1CC[C@H]2[C@@H]3CCC4=CC(=O)CC[C@]4(C)[C@H]3CC[C@]12C(=O)O [NORSELIC ACID D]
Activity (Leishmania): 2 µM

C=C(C)[C@@](CC)(CC[C@@H](C)[C@H]1CC[C@H]2[C@@H]3C=CC4=CC(=O)C=C[C@]4(C)[C@H]3CC[C@]12C(=O)O)OC(C)=O [NORSELIC ACID E]
Activity (Leishmania): 3.6 µM

Cc1onc(-c2ccccc2)c1C(=O)N[C@@H]1C(=O)N2[C@@H]1SC(C)(C)[C@@H]2C(=O)O [OXACILLIN]
inhibition zone (IZ) (Escherichia coli [15]): 0 mm | inhibition zone (IZ) (Staphylococcus aureus [16]): 0 mm | inhibition zone (IZ) (Enterococcus faecium [17]): 0 mm | inhibition zone (IZ) (Staphylococcus aureus [18]): 18 mm | zone of inhibition at 30 µg/disc (Escherichia coli [4]): 8 mm | inhibition zone (IZ) (Staphylococcus aureus [19]): 22 mm | inhibition zone (IZ) (Candida albicans [20]): 0 mm

CO[C@H]1/C=C/O[C@@]2(C)Oc3c(C)c(O)c4c(O)c(c(/C=N/N5CCN(C)CC5)c(O)c4c3C2=O)NC(=O)/C(C)=C\C=C\[C@H](C)[C@H](O)[C@@H](C)[C@@H](O)[C@@H](C)[C@H](OC(C)=O)[C@@H]1C [RIFAMPIN]
zone of inhibition at 5 µg/disc (Escherichia coli [21]): 6 mm | zone of inhibition at 5 µg/disc (Escherichia coli [22]): 20 mm | zone of inhibition at 5 µg/disc (Candida albicans [23]): 0 mm

CN[C@H](CC(C)C)C(=O)N[C@H]1C(=O)N[C@@H](CC(N)=O)C(=O)N[C@H]2C(=O)N[C@H]3C(=O)N[C@H](C(=O)N[C@H](C(=O)O)c4cc(O)cc(O)c4-c4cc3ccc4O)[C@H](O)c3ccc(c(Cl)c3)Oc3cc2cc(c3O[C@@H]2O[C@H](CO)[C@@H](O)[C@H](O)[C@H]2O[C@H]2C[C@](C)(N)[C@H](O)[C@H](C)O2)Oc2ccc(cc2Cl)[C@H]1O [VANCOMYCIN]
zone of inhibition at 30 µg/disc (Candida albicans [1]): 0 mm | zone of inhibition at 30 µg/disc (Staphylococcus aureus [6]): 19 mm | zone of inhibition at 30 µg/disc (Escherichia coli [4]): 25 mm | zone of inhibition at 30 µg/disc (Escherichia coli [5]): 17 mm | zone of inhibition at 30 µg/disc (Staphylococcus aureus [7]): 15 mm | zone of inhibition at 30 µg/disc (Enterococcus faecium [8]): 0 mm
